Laboratory results taken from US20250064844A1 (Emory University, priority 2020, published 2025).
Where two headings read alike, the source gives them in different places.

Tests used:
in vitro [1] = conditions: monkey, plasma
[2] = cynomolgus monkey, in vivo, po; for AUC0->24h / CL / Cmax / Tmax / t1/2: 0.4 mmol/kg
in vitro [3] = conditions: both, human, plasma
in vitro [4] = conditions: male, CD-1, mouse, microsomes, pH 7.4
in vitro [5] = conditions: male, CD-1, mouse, plasma
in vitro [6] = conditions: dog, plasma
in vitro [7] = conditions: male, Sprague-Dawley, rat, plasma
[8] = human, in vivo
in vivo = conditions: ICR (CD-1), mouse, 15 mg/kg
in vitro [9] = conditions: both, human, microsomes, pH 7.4
in vitro [10] = conditions: monkey, microsomes, pH 7.4

CC(C)C(=O)OC[C@H]1O[C@@H](n2ccc(NO)nc2=O)[C@H](OC(=O)C(C)C)[C@@H]1OC(=O)C(C)C [EIDD-2800]
half-life at 1 μM (in vitro [1]): 2 min | F* ([2]; female): ~16% | F* ([2]; male): ~27% | half-life at 1 μM (in vitro [3]): 1 min | half-life (in vitro [4]): < 1 min | half-life at 1 μM (in vitro [5]): 1 min

CC(C)C(=O)OC[C@H]1O[C@@H](n2ccc(NO)nc2=O)[C@H](O)[C@@H]1O [EIDD-2801]
half-life at 1 μM (in vitro [6]): 192 min | half-life at 1 μM (in vitro [7]): 1 min | half-life at 1 μM (in vitro [1]): 24 min | AUC0−>t (CEM cells): 85.3 pmol · h/M cells | Cmax (CEM cells): 5.4 pmol/M Cells | hematological parameters [8]: no clinically significant changes in hematological parameters | F* ([2]; female): ~26% | F* ([2]; male): ~22% | AUC0−>t (Vero cells): 1724 pmol · h/M cells | Cmax (Vero cells): 121.2 pmol/M Cells | AUC0−>t (HepG2 cells): 360.3 pmol · h/M cells | Cmax (HepG2 cells): 18.9 pmol/M Cells | AUC0−>t (Huh-7 cells): 1025 pmol · h/M cells | Cmax (Huh-7 cells): 77.5 pmol/M Cells | half-life at 1 μM (in vitro [3]): 63 min | half-life at 1 μM (in vitro [5]): 1 min

CC(C)[C@H](N)C(=O)OC[C@H]1O[C@@H](n2ccc(NO)nc2=O)[C@H](O)[C@@H]1O [EIDD-2898]
AUC(0-inf) (in vivo): 8.23 µM·h | Cmax (in vivo): 23.1 µM | Tmax (in vivo): 4.8 min | half-life (in vivo): 20.4 min | half-life at 1 μM (in vitro [1]): 138 min | F* ([2]; female): ~15% | AUC0->24h ([2]; female): 26.9 ± 4.8 µM·h | CL ([2]; female): 265 ± 53.3 mL/min/kg | Cmax ([2]; female): 15.9 ± 8.1 µM | Tmax ([2]; female): 78 ± 30 min | t1/2 ([2]; female): 33 ± 15 min | F* ([2]; male): ~18% | AUC0->24h ([2]; male): 26.1 ± 5.2 µM·h | CL ([2]; male): 273 ± 51.7 mL/min/kg | Cmax ([2]; male): 9.1 ± 2.7 µM | Tmax ([2]; male): 138 ± 57.6 min | t1/2 ([2]; male): 31.8 ± 9.6 min | half-life (in vitro [9]): 14 min | half-life (in vitro [10]): 13 min | half-life at 1 μM (in vitro [3]): 198 min | half-life at 1 μM (in vitro [5]): 144 min
